Data as given in ChEMBL document CHEMBL3352506, “Betulin derivatives impair Leishmania braziliensis viability and host-parasite interaction” (Bioorg Med Chem, 2014).
Activity calls are given as the source filed them. The rule behind the calls is not given here.

Key:
[1] = tested on: Leishmania braziliensis; assay: Antiparasitic activity against Leishmania braziliensis assessed as inhibition of growth after 72 hrs at 10 uM; type: functional
[2] = tested on: Leishmania braziliensis; assay: Antiparasitic activity against Leishmania braziliensis assessed as inhibition of infection with mouse J774.A1 cells measured infected cells […] at 1 x 10^-8 M after 4 hrs; type: functional; set-up: scale not given: the % may be the effect or the level left
[3] = tested on: Leishmania braziliensis; assay: Antiparasitic activity against Leishmania braziliensis assessed as inhibition of infection with mouse J774.A1 cells measured attached parasites at 1 x 10^-9 M after 4 hrs; type: functional; set-up: scale not given: the % may be the effect or the level left
[4] = tested on: Leishmania braziliensis; assay: Antiparasitic activity against Leishmania braziliensis assessed as inhibition of infection with mouse J774.A1 cells measured as 5 to 10 parasites per cell at 1 x 10^-8 M after 4 hrs; type: functional; set-up: scale not given: the % may be the effect or the level left
[5] = tested on: Leishmania braziliensis; assay: Leishmanicidal activity against Leishmania braziliensis assessed as reduction in parasite migration at 10^-6 M after 30 mins by chemotactic assay; type: functional, organism-based
[6] = tested on: J774.A1; assay: Cytotoxicity against mouse J774.A1 cells; type: cell-based
[7] = tested on: Leishmania braziliensis; assay: Antiparasitic activity against Leishmania braziliensis assessed as inhibition of infection with mouse J774.A1 cells measured as 5 to 10 parasites per cell at 1 x 10^-9 M after 4 hrs; type: functional; set-up: scale not given: the % may be the effect or the level left
[8] = Selectivity index, ratio of IC50 for mouse J774.A1 cells to IC50 for Leishmania braziliensis; type: toxicity, cell-based; conditions: J774.A1 cells versus Leishmania braziliensis, read-out: Ratio IC50
[9] = tested on: Leishmania braziliensis; assay: Antiparasitic activity against Leishmania braziliensis assessed as inhibition of infection with mouse J774.A1 cells measured as <5 parasites per cell at 1 x 10^-9 M after 4 hrs; type: functional; set-up: scale not given: the % may be the effect or the level left
[10] = tested on: Leishmania braziliensis; assay: Antiparasitic activity against Leishmania braziliensis assessed as inhibition of infection with mouse J774.A1 cells measured infected cells […] at 1 x 10^-9 M after 4 hrs; type: functional; set-up: scale not given: the % may be the effect or the level left
[11] = tested on: Leishmania braziliensis; assay: Antiparasitic activity against Leishmania braziliensis assessed as inhibition of growth after 72 hrs; type: functional, organism-based
[12] = tested on: Leishmania braziliensis; assay: Antiparasitic activity against Leishmania braziliensis assessed as inhibition of infection with mouse J774.A1 cells measured as >10 parasites per cell at 1 x 10^-9 M after 4 hrs; type: functional; set-up: scale not given: the % may be the effect or the level left
[13] = tested on: Leishmania braziliensis; assay: Antiparasitic activity against Leishmania braziliensis assessed as inhibition of infection with mouse J774.A1 cells measured as >10 parasites per cell at 1 x 10^-8 M after 4 hrs; type: functional; set-up: scale not given: the % may be the effect or the level left
[14] = tested on: Leishmania braziliensis; assay: Antiparasitic activity against Leishmania braziliensis assessed as inhibition of infection with mouse J774.A1 cells measured attached parasites at 1 x 10^-7 M after 4 hrs; type: functional; set-up: scale not given: the % may be the effect or the level left
[15] = tested on: Leishmania braziliensis; assay: Leishmanicidal activity against Leishmania braziliensis assessed as dead cells at 10^-6 M after 30 mins by chemotactic assay; type: functional; conditions: 0.5 h
[16] = tested on: Leishmania braziliensis; assay: Antiparasitic activity against Leishmania braziliensis assessed as inhibition of infection with mouse J774.A1 cells measured as >10 parasites per cell at 1 x 10^-7 M after 4 hrs; type: functional; set-up: scale not given: the % may be the effect or the level left
[17] = tested on: Leishmania braziliensis; assay: Antiparasitic activity against Leishmania braziliensis assessed as inhibition of infection with mouse J774.A1 cells measured as 5 to 10 parasites per cell at 1 x 10^-7 M after 4 hrs; type: functional; set-up: scale not given: the % may be the effect or the level left
[18] = tested on: Leishmania braziliensis; assay: Antiparasitic activity against Leishmania braziliensis assessed as inhibition of infection with mouse J774.A1 cells measured as <5 parasites per cell at 1 x 10^-8 M after 4 hrs; type: functional; set-up: scale not given: the % may be the effect or the level left
[19] = tested on: Leishmania braziliensis; assay: Antiparasitic activity against Leishmania braziliensis assessed as inhibition of infection with mouse J774.A1 cells measured as <5 parasites per cell at 1 x 10^-7 M after 4 hrs; type: functional; set-up: scale not given: the % may be the effect or the level left
[20] = tested on: Leishmania braziliensis; assay: Antiparasitic activity against Leishmania braziliensis assessed as inhibition of infection with mouse J774.A1 cells measured attached parasites at 1 x 10^-8 M after 4 hrs; type: functional; set-up: scale not given: the % may be the effect or the level left
[21] = tested on: Leishmania braziliensis; assay: Antiparasitic activity against Leishmania braziliensis assessed as inhibition of infection with mouse J774.A1 cells measured infected cells […] at 1 x 10^-7 M after 4 hrs; type: functional; set-up: scale not given: the % may be the effect or the level left
[22] = tested on: Leishmania braziliensis; assay: Antiparasitic activity against Leishmania braziliensis assessed as inhibition of infection with mouse J774.A1 cells measured as >10 parasites per cell at 1 uM after 4 hrs; type: functional; set-up: scale not given: the % may be the effect or the level left
[23] = tested on: Leishmania braziliensis; assay: Antiparasitic activity against Leishmania braziliensis assessed as inhibition of infection with mouse J774.A1 cells measured as 5 to 10 parasites per cell at 1 uM after 4 hrs; type: functional; set-up: scale not given: the % may be the effect or the level left
[24] = tested on: Leishmania braziliensis; assay: Antiparasitic activity against Leishmania braziliensis assessed as inhibition of infection with mouse J774.A1 cells measured attached parasites at 1 uM after 4 hrs; type: functional; set-up: scale not given: the % may be the effect or the level left
[25] = tested on: Leishmania braziliensis; assay: Antiparasitic activity against Leishmania braziliensis assessed as inhibition of infection with mouse J774.A1 cells measured as <5 parasites per cell at 1 uM after 4 hrs; type: functional; set-up: scale not given: the % may be the effect or the level left
[26] = tested on: Leishmania braziliensis; assay: Antiparasitic activity against Leishmania braziliensis assessed as inhibition of infection with mouse J774.A1 cells measured infected cells at 1 uM after 4 hrs; type: functional; set-up: scale not given: the % may be the effect or the level left
[27] = tested on: Leishmania braziliensis; assay: Leishmanicidal activity against Leishmania braziliensis assessed as dead cells at 10^-12 to 10^-7 M after 30 mins by chemotactic assay; type: functional, organism-based

**Q.** With `C=C(C)[C@@H]1CC[C@]2(C(=O)O)CC[C@]3(C)[C@H](CC[C@@H]4[C@@]5(C)CCC(=O)C(C)(C)[C@@H]5CC[C@]43C)[C@@H]12` [BETUNOLIC ACID] as the molecule, how does the inhibition at 10 µM [1] read?
**A.** 50%

**Q.** Which inhibition at 10 µM [1] does the source give for `CC(=O)OC[C@]12CC[C@]3(C(C)C)C1=C1C(C[C@@H]4[C@@]5(C)CC[C@H](OC(C)=O)C(C)(C)[C@@H]5CC[C@@]4(C)[C@]1(C)CC2)n1c(=O)n(C)c(=O)n13` (some centres undefined) here?
**A.** 50%

**Q.** Which Activity [2] does the source give for `CC(C)[C@@]12CC[C@]3(C=O)CC[C@]4(C)C(=C31)C(C[C@@H]1[C@@]3(C)CC[C@H](O)C(C)(C)[C@@H]3CC[C@]14C)n1c(=O)n(C)c(=O)n12` (some centres undefined) here?
**A.** 13.7%

**Q.** What about the Activity [3] of the same molecule?
**A.** 50%

**Q.** What about the Activity [4] of the same molecule?
**A.** 9.73%

**Q.** And the Activity [5]?
**A.** Active

**Q.** And the IC50 [6]?
**A.** > 10 µM

**Q.** What about the Activity [7] of the same molecule?
**A.** 15.93%

**Q.** What about the selectivity ratio [8] of the same molecule?
**A.** > 5

**Q.** What about the Activity [9] of the same molecule?
**A.** 77.41%

**Q.** What about the Activity [10] of the same molecule?
**A.** 14.4%

**Q.** And the IC50 [11]?
**A.** 2.06 µM

**Q.** What about the Activity [12] of the same molecule?
**A.** 6.83%

**Q.** What about the Activity [13] of the same molecule?
**A.** 7.29%

**Q.** What about the Activity [14] of the same molecule?
**A.** 62.3%

**Q.** What about the inhibition at 1 µM [15] of the same molecule?
**A.** 25%

**Q.** And the Activity [16]?
**A.** 5.09%

**Q.** What about the Activity [17] of the same molecule?
**A.** 5.09%

**Q.** What about the Activity [18] of the same molecule?
**A.** 90.02%

**Q.** And the Activity [19]?
**A.** 84.09%

**Q.** And the Activity [20]?
**A.** 56.7%

**Q.** And the Activity [21]?
**A.** 12.7%

**Q.** Which results are given for `C=C(C)[C@@H]1CC[C@]2(/C=N/O)CC[C@]3(C)[C@H](CC[C@@H]4[C@@]5(C)CC[C@H](O)C(C)(C)[C@@H]5CC[C@]43C)[C@@H]12`?
**A.** Activity [5]: Active; IC50 [6]: > 10 µM; selectivity ratio [8]: > 2.5; IC50 [11]: 4.12 µM; inhibition at 1 µM [15]: 66%; inhibition at 10 µM [1]: 50%

**Q.** For `C[C@@H]1[C@H](O)[C@@H](C)/C=C/C=C/C=C/C=C/C=C/C=C/C=C/[C@H](O[C@@H]2O[C@H](C)[C@@H](O)[C@H](N)[C@@H]2O)C[C@@H]2O[C@](O)(C[C@@H](O)C[C@@H](O)[C@H](O)CC[C@@H](O)C[C@@H](O)CC(=O)O[C@H]1C)C[C@H](O)[C@H]2C(=O)O` [AMPHOTERICIN B], which Activity [22] is on record?
**A.** 7.15%

**Q.** What about the Activity [23] of the same molecule?
**A.** 21.45%

**Q.** And the Activity [24]?
**A.** 41.3%

**Q.** And the Activity [25]?
**A.** 71.51%

**Q.** What about the Activity [26] of the same molecule?
**A.** 15.2%

**Q.** For `C=C(C)[C@@H]1CC[C@]2(/C=N/O)CC[C@]3(C)[C@H](CC[C@@H]4[C@@]5(C)CC/C(=N\O)C(C)(C)[C@@H]5CC[C@]43C)[C@@H]12` [BETULIN-3,28-DIOXIME], which Activity [27] is on record?
**A.** Dose-dependent effect

**Q.** And the IC50 [6]?
**A.** > 10 µM

**Q.** What about the selectivity ratio [8] of the same molecule?
**A.** > 3

**Q.** And the IC50 [11]?
**A.** 3.35 µM

**Q.** And the inhibition at 1 µM [15]?
**A.** 25%

**Q.** And the inhibition at 10 µM [1]?
**A.** 50%

**Q.** For `CC(C)[C@@]12CC[C@]3(COC=O)CC[C@]4(C)C(=C31)C(C[C@@H]1[C@@]3(C)CC[C@H](OC=O)C(C)(C)[C@@H]3CC[C@]14C)n1c(=O)n(C)c(=O)n12` (some centres undefined), which Activity [2] is on record?
**A.** 13.4%

**Q.** What about the Activity [27] of the same molecule?
**A.** Dose-dependent effect

**Q.** And the Activity [3]?
**A.** 55%

**Q.** What about the Activity [4] of the same molecule?
**A.** 31.09%

**Q.** And the IC50 [6]?
**A.** > 10 µM

**Q.** And the Activity [7]?
**A.** 15.86%

**Q.** And the selectivity ratio [8]?
**A.** > 40

**Q.** And the Activity [9]?
**A.** 76.14%

**Q.** What about the Activity [10] of the same molecule?
**A.** 10.3%

**Q.** And the IC50 [11]?
**A.** 0.25 µM

**Q.** What about the Activity [12] of the same molecule?
**A.** 6.34%

**Q.** What about the Activity [13] of the same molecule?
**A.** 4.78%

**Q.** What about the Activity [14] of the same molecule?
**A.** 59%

**Q.** And the inhibition at 1 µM [15]?
**A.** 25%

**Q.** And the Activity [16]?
**A.** 3.86%

**Q.** What about the Activity [17] of the same molecule?
**A.** 25.15%

**Q.** And the Activity [18]?
**A.** 59.79%

**Q.** And the Activity [19]?
**A.** 61.91%

**Q.** What about the Activity [20] of the same molecule?
**A.** 46.6%

**Q.** What about the Activity [21] of the same molecule?
**A.** 17.7%
